Values of other authors in US20070020305A1, “Attractant for monitoring or controlling female stored product moths” (Board of Regents for Oklahoma State University, priority 2004, published 2007).

Test system: stored product moths
Settings: for Attraction of females and males: Indianmeal moth and Mediterranean flour moth, Toth et al. 2002

Row | Structure (SMILES) | Attractiveness to stored product moths, in words (background statement) | Attraction of females and males
1 | CCCCC/C=C\C=C\C(=O)OCC [ethyl-decdienoate] | not attractive | –
2 | CC(C)CCO [isoamyl alcohol] | – | would attract females and males
3 | CC(=O)O [acetic acid] | – | would attract females and males
